Experiments:
E. coli RNase P = assay: RNase P activity assay (ptRNA processing), in-vitro reconstituted E. coli RNase P; type: biochemical; conditions: for inhibition of RNase P processing activity: radiolabeled ptRNA Tyr su3+ substrate, FIG. 3; for effect of poly A RNA on ability to inhibit E. coli RNase P: as much as 1 μM poly A RNA added; for IC50: initial reaction velocities at increasing inhibitor concentrations, FIG. 4a-b, read-out: IC50, inhibition of E. coli RNase P activity
Procedure: RNase P from E. coli was prepared and purified according to Vioque, A. et al. (1988) J. Mol. Biol. 202:835-848 and Gopalan, V. (1997) J. Mol. Biol. 267:818-829.
ptRNA^Tyrsu3+ was prepared by in vitro transcription of FokI-digested pUC19TyrT [Vioque, A. et al. (1988) J. Mol. Biol. 202:835-848].
(§1) RNase P activity was determined in the presence or absence of AAC inhibitors suspended in 50 mM Tris-Hcl (7.2), 5 % (w/v) polyethylene glycol 8000, 1 mM NH4Cl, 10 mM spermidine, 10 mM MgCl2. Reactions were carried under multiple-tumover conditions (for example, 100 nM of radio-labeled ptRNA^Tyrsu3+ and 0.5 nM E. coli RNase P holoenzyme).
Following holoenzyme assembly, AAC inhibitors were added to the reaction mixture and incubated for 5 minutes prior to the addition of [^32P]-ptRNA^Tyrsu3+ substrate. Reactions were allowed to proceed for the indicated times and were terminated by adding a quenching dye [7 M Urea, 10 mM EDTA, 10% (v/v) phenol]. Reaction products were resolved by gel electrophoresis (8% polyacrylamide/7 M Urea) and auto-radiograms were obtained.
(§2) Extent of substrate cleavage was quantified using a PhosphorImager (Molecular Dynamics) and ImageQuant softwares.

[1] = test system: RNase P derived from N. gonnorhoeae; assay: RNase P activity assay (ptRNA processing), reconstituted N. gonnorhoeae RNase P; type: biochemical, Neisseria gonnorhoeae; conditions: FIG. 3
Procedure: (§3) Polynucleotide sequences of Neisseria gonnorhoeae, Porphyromonas gingivalis and Streptococcus pneumoniae (SEQ ID NOS: 1, 3 and 5, respectively) expressing amino acid (SEQ ID NOS: 2, 4 and 6, respectively) subunits of RNase P were PCR amplified using standard PCR methodology. The genes encoding the RNA subunit of RNase P were cloned into pUC19 under the transcriptional control of a T7 RNA polymerase promoter. T7 RNA polymerase-mediated run-off in vitro transcription was performed on individual clones to generate the respective RNase P RNAs, which were then purified using Quick Spin columns. cDNAs encoding the protein subunits of the various bacterial species were subcloned into either expression vectors: pCRT7TOPO or pBAD (Invitrogen, Carlsbad, Calif.). Proteins were over-expressed in E. coli as His6-tagged fusion proteins and purified to homogeneity using a combination of cation exchange and immobilized metal affinity chromatography.
as §1, with “holoenzyme). […]” for “holoenzyme).”
as §2

[2] = test system: RNase P derived from S. pneumoniae; assay: RNase P activity assay (ptRNA processing), reconstituted S. pneumoniae RNase P; type: biochemical, Streptococcus pneumoniae; conditions: FIG. 3
Procedure: as §3
as §1, with “holoenzyme). […]” for “holoenzyme).”
as §2

human RNase P = assay: Activity of partially purified human RNase P (ptRNA processing); type: biochemical; conditions: FIG. 5; for inhibition of human RNase P: 7.5 μM; for effect on human RNase P activity: concentrations 10-fold greater than the IC50 values for E. coli RNase P
Procedure: In order to determine if the AAC inhibitors of the present invention cross-react with human RNase P, the activity of a partially purified human enzyme was tested in the absence or presence of various concentrations of NeoR and […].

[3] = molecular target: various bacterial RNase P; assay: RNase P activity assay, various bacterial RNase P; type: biochemical; conditions: concentration range
Procedure: as §3
as §1, with “holoenzyme). […]” for “holoenzyme).”
as §2

[4] = test system: RNase P derived from P. gingivalis; assay: RNase P activity assay (ptRNA processing), reconstituted P. gingivalis RNase P; type: biochemical, Porphyromonas gingivalis; conditions: FIG. 3
Procedure: as §3
as §1, with “holoenzyme). […]” for “holoenzyme).”
as §2

[5] = two single doses of 25 mg/kg body weight for the duration of two hours; cited from earlier work
[6] = test system: RNP complex formed between HIV TAR RNA and Tat-derived peptide; conditions: 10-fold excess of tRNA; cited from earlier work

RNase P derived from P. gingivalis, sequence (as listed by the source): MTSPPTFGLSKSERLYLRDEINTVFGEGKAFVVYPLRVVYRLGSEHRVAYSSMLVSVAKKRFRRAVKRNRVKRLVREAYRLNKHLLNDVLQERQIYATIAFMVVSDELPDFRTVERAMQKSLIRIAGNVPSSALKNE

N=C(N)NCCC[C@H](N)C(=O)O [L-Arginine, reference compound]
inhibition of RNase P specific activity (E. coli RNase P; 10-fold excess concentration over the ptRNA substrate, FIG. 6): did not inhibit

hexa-argininamido-neomycin B [NeoR]
inhibition of RNase P processing activity ([1]; 500 nM NeoR): nearly complete inhibition | inhibition of RNase P processing activity (E. coli RNase P; 500 nM NeoR): nearly complete inhibition | effect of poly A RNA on ability to inhibit E. coli RNase P (E. coli RNase P; FIG. 6): failed to alter | IC50 (E. coli RNase P): 125 nM | IC50 fold lower than that of the parental aminoglycoside (E. coli RNase P; versus literature value of parental aminoglycoside (Mikkelsen 1999)): 100 fold | inhibition of RNase P processing activity ([2]; 500 nM NeoR): nearly complete inhibition | inhibition of human RNase P (human RNase P): nearly complete inhibition | effect on human RNase P activity (human RNase P): largely unaffected | IC50 for inhibition of various bacterial RNase P [3]: sub-micromolar | susceptibility of RNase P activity to the inhibitor ([4]; 500 nM NeoR): less susceptible | toxicity to mice [5]: not toxic

triargininamido-gentamycin C [R3G]
inhibition of RNase P processing activity ([1]; 1500 nM R3G): nearly complete inhibition | inhibition of RNase P processing activity (E. coli RNase P; 1500 nM R3G): nearly complete inhibition | effect of poly A RNA on ability to inhibit E. coli RNase P (E. coli RNase P; FIG. 6): failed to alter | IC50 (E. coli RNase P): 300 nM | inhibition of RNase P processing activity ([2]; 1500 nM R3G): nearly complete inhibition | effect of tRNA on ability to disrupt the TAR RNA/Tat-derived peptide complex [6]: no effect | inhibition of human RNase P (human RNase P): nearly complete inhibition | effect on human RNase P activity (human RNase P): largely unaffected | IC50 for inhibition of various bacterial RNase P [3]: sub-micromolar | susceptibility of RNase P activity to the inhibitor ([4]; 1500 nM R3G): less susceptible
